Data taken from PubChem BioAssay (NCI).
“And” between values parts separate entries of the source, which are not always exact repeats. Equal values may be shown once.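 A five-concentration, 48-hour dose response in 96-well plates underlies each endpoint, interpolated linearly between surrounding concentrations. GI50 is the concentration that inhibits growth by half. The concentration for full growth arrest is given as TGI.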

Assays:
Assay in all cases: DTP human tumour cell line panel, 48 h
HOP-18 NSCLC = system: HOP-18 NSCLC
KM20L2 colon = system: KM20L2 colon
DMS 273 small cell lung = system: DMS 273 small cell lung
RXF-631 renal = system: RXF-631 renal
DMS 114 small cell lung = system: DMS 114 small cell lung
SNB-78 CNS = system: SNB-78 CNS
MDA-MB-231 breast = system: MDA-MB-231 breast
MDA-N = system: MDA-N

| Compound | TGI (KM20L2 colon) [µM] | TGI (DMS 273 small cell lung) [µM] | TGI (DMS 114 small cell lung) [µM] | TGI (SNB-78 CNS) [µM] | GI50 (MDA-MB-231 breast) [µM] | TGI (MDA-MB-231 breast) | other results |
| --- | --- | --- | --- | --- | --- | --- | --- |
| Cc1ccccc1NC(=O)CC(=O)NNCC(=O)Nc1nnc(-c2ccccc2)s1 | > 100 | > 100 | > 100 | > 100 | – | – | TGI (HOP-18 NSCLC): 96.2 µM; TGI (RXF-631 renal): > 100 µM |
| CCC12C=C(C(=O)OC)N3c4ccccc4C4CCN(CCC1)C2C43 (centres undefined) | 56.7 | > 100 | > 100 | > 100 | – | – | TGI (HOP-18 NSCLC): > 100 µM |
| CCCCC(C(=O)C(=O)Nc1ccccc1CC)C(=O)C(C)C (centres undefined) | > 100 | > 100 | > 100 | > 100 | – | – | TGI (RXF-631 renal): > 100 µM |
| C=CCN(CC=C)Cc1c[nH]c2ccccc12 | – | – | – | – | 23.4 | 54.8 µM | – |
| CC(=O)O[C@H]1C[C@@H]2[C@@]3(C)CC[C@H]4C[C@@]4(C)[C@@H]3CC[C@@]2(C)C2=CCC3=C(COC3=O)[C@]21C | – | – | – | – | 15.8 | 35.9 µM | – |
| CCCCCCCCCCCCOC1C(C(COC2OC(C(O)CO)C3OC(C)(C)OC23)OC(=O)Nc2ccccc2)OC2OC(C)(C)OC21 (centres undefined) | – | – | – | – | 8.7 | 21.1 µM | – |
| O=[N+]([O-])c1ccc(/C=C(/c2ccc([N+](=O)[O-])o2)S(=O)(=O)c2ccccc2)cc1 | – | – | – | – | – | 88.2 µM | – |
| COc1ccc(-c2c(Nc3ccccn3)nc3c(C4=CCCCC4)c(-c4ccccc4)[nH]n3c2=O)cc1 | – | – | – | – | 2.73 | 16.5 µM | – |
| CCOC(=O)C#Cc1c(C(=O)OCC)nnn1[C@@H]1O[C@H](COC)[C@@H](OC)[C@H]1OC | – | – | – | – | 10.7 | 25.1 µM | – |
| CN(C)CCCC1(c2ccc(F)cc2)OCc2cc(-c3csc4ccccc34)ccc21 (centres undefined) | – | – | – | – | 1.34 | 2.68 µM | – |
| ON1CCc2c([nH]c3ccccc23)C1c1ccc(Cl)cc1 (centres undefined) | 77.5 | 97.4 | > 100 | > 100 | – | – | – |
| N#C[Se]CCN1C(=O)c2ccccc2C1=O | – | – | – | – | 2.74 | 9.65 µM | – |
| O=C(/C=C(\[O-])c1ccccc1)CCCCCCC(=O)/C=C(\[O-])c1ccccc1.O=C(/C=C(\[O-])c1ccccc1)CCCCCCC(=O)/C=C(\[O-])c1ccccc1.O=C(/C=C(\[O-])c1ccccc1)CCCCCCC(=O)/C=C(\[O-])c1ccccc1.[Y+3].[Y+3] | > 50 | – | – | – | – | – | GI50 (KM20L2 colon): > 50 µM |
| CN(C)c1ccc(/C=C2\CCc3ccccc3C2=O)cc1Br | > 100 | > 100 | – | > 100 | – | – | TGI (HOP-18 NSCLC): > 100 µM |
| N=C(N)SCc1ccc(Cl)c2ccccc12 (tested in a mixture with another compound) | – | – | – | – | – | 21.9 µM and 27.8 µM | TGI (MDA-N): 23.4 µM and 24.8 µM |
| COc1cc2c3c(n(CCCN)c(=O)c2cc1OC)-c1ccc(N)cc1C3=O | – | – | – | – | 3.09 | 21.2 µM | – |
| COc1cc(/C=C/c2cc(/C=C/c3ccc(O)c(OC)c3)n(C(=O)Nc3ccc(C)cc3)n2)ccc1O | – | – | – | – | 1.46 | 23 µM | – |
| Nc1ccccc1C(=O)/C=C/c1ccccc1O | > 100 | – | > 100 | > 100 | – | – | TGI (HOP-18 NSCLC): > 100 µM; TGI (RXF-631 renal): > 100 µM |

| Compound | TGI (KM20L2 colon) [µM] | TGI (DMS 273 small cell lung) [µM] | TGI (DMS 114 small cell lung) [µM] | TGI (SNB-78 CNS) [µM] | GI50 (MDA-MB-231 breast) [µM] | TGI (MDA-MB-231 breast) | other results |
| --- | --- | --- | --- | --- | --- | --- | --- |
| CN1CCN(C(=O)/C=C/c2ccc([N+](=O)[O-])o2)CC1 | – | – | – | – | 14.3 | 34.7 µM | – |
| O=C1c2ccccc2-c2c1c1c(O)cccc1n2Cc1ccccc1 | – | – | – | – | > 100 | > 100 µM | – |
| COc1cc(NC(=O)COc2ccccc2)c(C(N)=O)cc1OC | – | – | – | – | 2.39 | 42.4 µM | – |
| CNCc1cccc2c1OCCOCCOCCNS(=O)(=O)c1ccc(cc1)-c1cnc(N)c(n1)C(=O)N2 | – | – | – | – | 1.38 | 3.61 µM | – |
| O=C(CC1(O)C(=O)Nc2c(Cl)cc(Cl)cc21)c1cccc([N+](=O)[O-])c1 (centres undefined) | > 100 | > 100 | 43.3 | > 100 | – | 64.7 µM | TGI (HOP-18 NSCLC): 98.6 µM; TGI (RXF-631 renal): 92.1 µM; TGI (MDA-N): 34.6 µM |
| O=C1NC(c2ccccc2Cl)Nc2ccccc21 (centres undefined) | – | – | – | – | – | > 100 µM | TGI (MDA-N): 3.29 µM |
| COC(=O)C1CC(=O)O[C@H]1c1ccc(OC)c(OC)c1 (some centres undefined) | > 100 | > 100 | > 100 | > 100 | – | – | TGI (HOP-18 NSCLC): > 100 µM; TGI (RXF-631 renal): > 100 µM |
| CN(C)c1ccc(/C=c2/sc3nc(=O)c(-c4ccccc4NC(=O)C(F)(F)F)nn3c2=O)cc1 | – | > 100 | 57.2 | > 100 | – | – | – |
| O/N=C1/C(=C/c2ccc(OCc3ccccc3)cc2)CCCC1C(NO)c1ccc(OCc2ccccc2)cc1 (centres undefined) | > 100 | > 100 | – | – | – | – | TGI (HOP-18 NSCLC): > 100 µM; TGI (RXF-631 renal): > 100 µM |
| CC(=O)NC(CCCNC(=O)OCc1ccccc1)C(=O)NCc1ccccc1 (centres undefined) | > 100 | > 100 | > 100 | – | – | – | – |
| O=c1c(Oc2ccc(F)cc2F)cc2cnc(NC3CCOCC3)nc2n1C1CC1 | – | – | – | – | > 25 | > 25 µM | – |
| O=[N+]([O-])c1ccc(/C=C/c2ccc(/C=C/c3ccc([N+](=O)[O-])cc3[N+](=O)[O-])cc2)c([N+](=O)[O-])c1 | > 100 | > 100 | > 100 | > 100 | – | – | – |
| CCOC(OCC)(OCC)C(Br)CC (centres undefined) | > 100 | 34.5 | 25.3 | > 100 | – | – | TGI (HOP-18 NSCLC): > 100 µM; TGI (RXF-631 renal): > 100 µM |
| O=C(CC1(O)C(=O)Nc2c(Cl)ccc(Cl)c21)c1ccc(Cl)cc1 (centres undefined) | > 100 | 73.5 | 49.2 | > 100 | – | – | TGI (HOP-18 NSCLC): > 100 µM; TGI (RXF-631 renal): 64.3 µM |
| COc1ccccc1CNCCCN1C(=O)c2ccc3c4c(ccc(c24)C1=O)C(=O)N(CCCNCc1ccccc1OC)C3=O | – | – | – | – | 0.227 | 0.867 µM | – |
| CC(C)c1ccc2c(c1)CCC1C2CCCC1(C)NCc1ccccc1 (centres undefined) | – | – | – | – | 3.31 | 12.4 µM | – |
| N#Cc1c(CC(=O)O)cc(=O)n2c1[nH]c1ccccc12 | > 100 | > 100 | > 100 | > 100 | – | – | – |
| CNS(=O)(=O)NNS(=O)(=O)c1ccc(C)cc1 | > 100 | – | > 100 | – | – | – | – |
